In ChEMBL document CHEMBL1121561, “Synthesis and antineoplastic activity of a novel series of phosphoramide mustard analogues of pyrimidine deoxyribonucleosides” (1980):
Activity calls are given as the source filed them. The rule behind the calls is not given here.

What was measured:
L1210 [1] = test: Compound was tested in vitro for its inhibition against replication of L1210 neoplastic cells; Inactive; assay type: functional, cell-based; settings: Mus musculus
L1210 [2] = test: Compound was tested in vitro for its inhibition against replication of L1210 neoplastic cells; assay type: functional; settings: Mus musculus, read-out: ID50 (the source's name)

Structure (SMILES)	ID50 (L1210 [1])	IC50 (L1210 [2]) [µM]
Cc1cn(C2CC3NP(=O)(N(CCCl)CCCl)NCC3O2)c(=O)[nH]c1=O (stereo not given)	inactive	
Cc1cn(C2CC3OP(=O)(N(CCCl)CCCl)NCC3O2)c(=O)[nH]c1=O (stereo not given)		12
O=P1(N(CCCl)CCCl)NCCCO1 (stereo not given)	inactive	
O=c1[nH]c(=O)n(C2CC3OP(=O)(N(CCCl)CCCl)NCC3O2)cc1I (stereo not given)		14
Cc1cn(C2CC3OP(=O)(N(CCCl)CCCl)N(C)CC3O2)c(=O)[nH]c1=O (stereo not given)		15
